The supplement of paper PMC4862054
“And” between values parts separate entries of the source, which are not always exact repeats. Identical values can stand only once.

What was measured:
[1] = test system: MDA-MB-436; assay: normalised viability (% of control), CellTiter-Blue; higher = more viable cells (about 100 = DMSO control); conditions: incubation time: 72 h
Procedure, shortened: (§1)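 Breast cancer cell lines were treated for 72 h in 384-well format and measured by CellTiter-Blue fluorescence at 560/590 nm. Results were normalised per plate to vehicle (100) and a positive kill control (0). The entry is normalised viability at a single listed concentration of the series.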

[2] = test system: SK-BR-3; assay: as above; conditions: incubation time: 72 h
Procedure, shortened: as §1

[3] = test system: HCC1937; assay: as above; conditions: incubation time: 72 h
Procedure, shortened: as §1

[4] = test system: MDA-MB-468; assay: as above; conditions: incubation time: 72 h
Procedure, shortened: as §1

[5] = test system: BT-474; assay: as above; conditions: incubation time: 72 h
Procedure, shortened: as §1

[6] = test system: CAL-51; assay: as above; conditions: incubation time: 72 h
Procedure, shortened: as §1

[7] = test system: CAL-85-1; assay: as above; conditions: incubation time: 72 h
Procedure, shortened: as §1

[8] = test system: HCC1143; assay: as above; conditions: 10000 nM; incubation time: 72 h
Procedure, shortened: as §1

[9] = test system: MDA-MB-231; assay: as above; conditions: incubation time: 72 h
Procedure, shortened: as §1

[10] = test system: CAL-120; assay: as above; conditions: incubation time: 72 h
Procedure, shortened: as §1

[11] = test system: BT-549; assay: as above; conditions: incubation time: 72 h
Procedure, shortened: as §1

[12] = test system: DU-4475; assay: as above; conditions: incubation time: 72 h
Procedure, shortened: as §1

[13] = test system: MFM-223; assay: as above; conditions: incubation time: 72 h
Procedure, shortened: as §1

[14] = test system: MDA-MB-453; assay: as above; conditions: incubation time: 72 h
Procedure, shortened: as §1

[15] = test system: Hs578T; assay: as above; conditions: incubation time: 72 h
Procedure, shortened: as §1

[16] = test system: HCC1599; assay: as above; conditions: incubation time: 72 h
Procedure, shortened: as §1

[17] = test system: HDQ-P1; assay: as above; conditions: incubation time: 72 h
Procedure, shortened: as §1

[18] = test system: CAL-148; assay: as above; conditions: incubation time: 72 h
Procedure, shortened: as §1

[19] = test system: CAL-51; assay: normalised viability (% of control), CellTiter-Blue; higher = more viable cells (about 100 = DMSO control); conditions: incubation time: 72 h; remark: listed apart in the source
Description: (§2)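 DSRT, CellTiter-Blue viability, 72 h incubation. Signal is normalised to DMSO and benzethonium chloride controls. Value is the normalised response at dose 9.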

[20] = test system: CAL-85-1; assay: as above; conditions: incubation time: 72 h; remark: listed apart in the source
Description: as §2

[21] = test system: DU-4475; assay: as above; conditions: incubation time: 72 h; remark: listed apart in the source
Description: as §2

[22] = test system: MDA-MB-453; assay: as above; conditions: incubation time: 72 h; remark: listed apart in the source
Description: as §2

[23] = test system: HDQ-P1; assay: as above; conditions: incubation time: 72 h; remark: listed apart in the source
Description: as §2

[24] = test system: CAL-148; assay: as above; conditions: incubation time: 72 h; remark: listed apart in the source
Description: as §2

[25] = test system: MDA-MB-436; assay: normalised viability (% of control), CellTiter-Blue; higher = more viable cells (100 = DMSO, 0 = benzethonium chloride kill control); conditions: incubation time: 72 h
Description: (§3)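 DSRT, CellTiter-Blue viability, 72 h incubation. Signal is normalised to DMSO and benzethonium chloride controls. Value is the normalised response at dose 1.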

[26] = test system: BT-474; assay: as above; conditions: 1 nM; incubation time: 72 h
Description: as §3

[27] = test system: CAL-85-1; assay: as above; conditions: incubation time: 72 h
Description: as §3

[28] = test system: HCC1143; assay: as above; conditions: 1 nM; incubation time: 72 h
Description: as §3

[29] = test system: MDA-MB-231; assay: as above; conditions: incubation time: 72 h
Description: as §3

[30] = test system: MDA-MB-453; assay: as above; conditions: incubation time: 72 h
Description: as §3

[31] = test system: CAL-148; assay: as above; conditions: incubation time: 72 h
Description: as §3

Compound: CC(C)(C#N)c1cc(Cn2cncn2)cc(C(C)(C)C#N)c1 [Anastrozole]
- normalised viability ([1]; 10000 nM): 97.1%
- normalised viability ([2]; 10000 nM): 102%
- normalised viability ([3]; 10000 nM): 90.9%
- normalised viability ([4]; 10000 nM): 95.2%
- normalised viability ([5]; 10000 nM): 122%
- normalised viability ([6]; 100 nM): 111%
- normalised viability ([7]; 100 nM): 91.8%
- normalised viability [8]: 80.5%
- normalised viability ([9]; 10000 nM): 106%
- normalised viability ([10]; 10000 nM): 90.2%
- normalised viability ([11]; 10000 nM): 85.1%
- normalised viability ([12]; 100 nM): 98.7%
- normalised viability ([13]; 10000 nM): 90.5%
- normalised viability ([14]; 100 nM): 94.1%
- normalised viability ([15]; 10000 nM): 107%
- normalised viability ([16]; 10000 nM): 104%
- normalised viability ([17]; 100 nM): 91.8%
- normalised viability ([18]; 100 nM): 98.1%
- normalised viability ([19]; 10000 nM): 104%
- normalised viability ([20]; 10000 nM): 93.9%
- normalised viability ([21]; 10000 nM): 112%
- normalised viability ([22]; 10000 nM): 79.8%
- normalised viability ([23]; 10000 nM): 98.6%
- normalised viability ([24]; 10000 nM): 94.2%
- normalised viability ([25]; 1 nM): 99%
- normalised viability [26]: 73.5%
- normalised viability ([27]; 1 nM): 94.1%
- normalised viability [28]: 83.4%
- normalised viability ([29]; 1 nM): 91.7%
- normalised viability ([30]; 1 nM): 98.4%
- normalised viability ([31]; 1 nM): 99%

Compound: O=C(O)CCCc1ccc(N(CCCl)CCCl)cc1 [Chlorambucil]
- normalised viability ([1]; 10000 nM): 83.3%
- normalised viability ([2]; 10000 nM): 80.4%
- normalised viability ([3]; 10000 nM): 52.8%
- normalised viability ([4]; 10000 nM): 81.2%
- normalised viability ([5]; 10000 nM): 118%
- normalised viability ([6]; 100 nM): 107%
- normalised viability ([7]; 100 nM): 98.6%
- normalised viability [8]: 96%
- normalised viability ([9]; 10000 nM): 88.4%
- normalised viability ([10]; 10000 nM): 91%
- normalised viability ([11]; 10000 nM): 74.7%
- normalised viability ([12]; 100 nM): 112%
- normalised viability ([13]; 10000 nM): 85.8%
- normalised viability ([14]; 100 nM): 114%
- normalised viability ([15]; 10000 nM): 87.5%
- normalised viability ([16]; 10000 nM): 92.5%
- normalised viability ([17]; 100 nM): 111%
- normalised viability ([18]; 100 nM): 103%
- normalised viability ([19]; 10000 nM): 96.5%
- normalised viability ([20]; 10000 nM): 98%
- normalised viability ([21]; 10000 nM): 90.9%
- normalised viability ([22]; 10000 nM): 65%
- normalised viability ([23]; 10000 nM): 115%
- normalised viability ([24]; 10000 nM): 89.7%
- normalised viability ([25]; 1 nM): 105%
- normalised viability [26]: 89.7%
- normalised viability ([27]; 1 nM): 97.4%
- normalised viability [28]: 105%
- normalised viability ([29]; 1 nM): 106%
- normalised viability ([30]; 1 nM): 109%
- normalised viability ([31]; 1 nM): 113%

Compound: CO[C@H]1C[C@@H]2CC[C@@H](C)[C@@](O)(O2)C(=O)C(=O)N2CCCC[C@H]2C(=O)O[C@H]([C@H](C)C[C@@H]2CC[C@@H](OCCO)[C@H](OC)C2)CC(=O)[C@H](C)/C=C(\C)[C@@H](O)[C@@H](OC)C(=O)[C@H](C)C[C@H](C)/C=C/C=C/C=C/1C [Everolimus]
- normalised viability ([1]; 1000 nM): 93.8% and 71.5%
- normalised viability ([2]; 1000 nM): 55.1% and 36.7%
- normalised viability ([3]; 1000 nM): 45.8% and 46.6%
- normalised viability ([4]; 1000 nM): 56.8% and 64.2%
- normalised viability ([5]; 1000 nM): 65% and 59.1%
- normalised viability ([6]; 10 nM): 39.8% and 39.5%
- normalised viability ([7]; 10 nM): 68.8% and 61.3%
- normalised viability ([9]; 1000 nM): 73.9% and 77.5%
- normalised viability ([10]; 1000 nM): 53.2% and 38.1%
- normalised viability ([11]; 1000 nM): 56.4% and 46.6%
- normalised viability ([12]; 10 nM): 64.3% and 57.3%
- normalised viability ([13]; 1000 nM): 51.6% and 26.8%
- normalised viability ([14]; 10 nM): 32.7% and 28.1%
- normalised viability ([15]; 1000 nM): 53.2% and 41.5%
- normalised viability ([16]; 1000 nM): 86.7% and 68.9%
- normalised viability ([17]; 10 nM): 79.4% and 60.5%
- normalised viability ([18]; 10 nM): 44.4% and 37.9%
- normalised viability ([19]; 1000 nM): 37% and 28.9%
- normalised viability ([20]; 1000 nM): 62% and 43%
- normalised viability ([21]; 1000 nM): 61.8% and 39.1%
- normalised viability ([22]; 1000 nM): 25.4% and 15.4%
- normalised viability ([23]; 1000 nM): 76.8% and 59.4%
- normalised viability ([24]; 1000 nM): 38% and 16.3%
- normalised viability ([25]; 0.1 nM): 104% and 86.3%
- normalised viability ([27]; 0.1 nM): 89.2% and 76.6%
- normalised viability ([29]; 0.1 nM): 94.9% and 73.3%
- normalised viability ([30]; 0.1 nM): 93.7% and 90%
- normalised viability ([31]; 0.1 nM): 93.9% and 95.7%
